One series has as its system motor coordination. As to the kind of experiment: motor coordination test (mice rotating rod test, Rota-rod). The class given is in vivo, mouse. Particulars: 30 mg/kg orally, 16 rpm, cut-off 60 seconds, FIG. 4. How it is done:
The effect of the compound of Example 1 on motor coordination was evaluated by means of mice rotating rod test.
Five male BALB/c, 6-7 weeks old mice per group were used. The mouse was trained for 2 or more days so that it could remain on the Rota-rod treadmill (Ugo Basile) in 3 cm in diameter rotating at 16 rpm for at least 60 seconds when it was placed on the rod with the head directed against the direction of rotation. Before the evaluation, three trials were conducted with 10 min or more intervals and the mice which could remain on the rod more than 60 seconds in all three times were selected for the evaluation. The selected mice were divided into test groups.
The time obtained in the third trial was used as the before administration value. Mice were orally received 30 mg/kg of the compound of Example 1 or gabapentin and placed on the rotating rod. The duration of time the mouse remained on the rod was recorded. A cut-off time of 60 seconds was employed and when an animal could remain more than 60 seconds, the time was recorded as 60 seconds.

A further series relates to neuropathic pain. Particulars: oral administration, in general; cited from earlier work.

For the compound `NCC1(CC(=O)O)CCCCC1` [gabapentin], in the series with motor coordination, the “duration of time the mouse remained on the rotating rod” value was “no reduction of the remaining time”. Also, the “onset of analgesic action” value with neuropathic pain is 1 to 2 h.

These data come from patent publication US20080021042A1, “Composition For Controlling Neuropathic Pain” (priority 2004, published 2008).
